Experiment [1] deals with MHCII alleles (HLA-DP, DQ, DR and murine). Put plainly: FP probe binding assay: catalysis of MHC class II peptide exchange (FITC-probe loading). Format: biochemical. Conditions: catalyst in acidic assay buffer, 37° C. How it is done:
To evaluate the kinetics of peptide exchange under various catalyzed and uncatalyzed conditions, the investigators evaluated the binding of FITC-probes at various incubation time points (FIG. 48A, left and right). […] Small molecule chaperones for MHCII loading have been previously described; the investigators tested if the commonly used n-octyl-beta-D-glucopyranoside—(abbreviated as OG) could function as a universal catalyst.
Fluorescence polarization (FP) based assays were developed to either assess the effect of catalysts on peptide exchange (direct loading of FITC-probes) or the IC50 of putative epitope peptides (competition assay). For assessing the loading kinetics of FITC-peptide probes, soluble MHCII protein (125 nM) was incubated with 20 nM of the corresponding allele-specific FITC-peptide FP probe (see Table 20) in either assay buffer alone (100 mM sodium acetate pH 5.2, 50 mM NaCl, 0.01% (v/v) Tween 20), or in combination with either 0.2% (w/v) octyl glucoside or 187.5 nM HLA-sDM in a final reaction volume of 45 μL in a 384-well Optiplate (Perkin Elmer). The plate was incubated at 37° C. and fluorescence polarization measured after 5 minutes, 1, 4, and 24 hours, as described below for the competition assay.

The conditions of experiment [2]: with NYESO-1 peptide vaccine and Montanide; ovarian carcinoma; cited from earlier work.

Where only a bound is given, the exact number is not on record here.

For `CCCCCCCCO[C@@H]1O[C@H](CO)[C@@H](O)[C@H](O)[C@H]1O` [OG, n-octyl-beta-D-glucopyranoside], the “FITC-probe loading onto MHCII alleles” value in experiment [1] was “only promoted FITC-probe loading on a subset of HLA-DR and -DP alleles”.

For the compound poly-ICLC, the “patients with induction of CD4+ and CD8+ T cell and antibody responses to the peptide” value in experiment [2] was more than 90%.

Source of the values: patent US20260031189A1, “METHOD AND SYSTEMS FOR PREDICTION OF HLA CLASS II-SPECIFIC EPITOPES AND CHARACTERIZATION OF CD4+ T CELLS” (BioNTech US Inc., priority 2022, published 2026).
